*1 amine or outer side, *2 acyl side, *3 side chain or, on linkers, in order; H or OH if unused. Where a SMILES comes first, the peptide text is derived from it. [ ]: non-standard residue; d: D form. The star is where a group is joined. ξ: configuration not given here. Doxorubicin(3'-N) = COc1cccc2c1C(=O)c1c(O)c3c(c(O)c1C2=O)C[C@@](O)(C(=O)CO)C[C@@H]3O[C@H]1C[C@H](N*)[C@H](O)[C@H](C)O1; Dolaproine(all-ξ) = COC(C(C)C(=O)[*:2])C1CCCN1[*:1]; Dolaproine = CO[C@@H]([C@@H]1CCCN1)[C@@H](C)C(=O)O; Dil = CC[C@H](C)[C@H](NC)[C@@H](CC(=O)O)OC; X1 = CCC(C)C(C(CC(=O)[*:2])OC)N(C)[*:1]; PABC = O=C(OCc1ccc(N[*:1])cc1)[*:2]; X3 = C[C@@H](N*)[C@@H](O)c1ccccc1; MeOCH2CH2OCH2CO = COCCOCC(=O)*; NMeV = CN[CH](C(=O)O)C(C)C; X2 = CC(N*)C(O)c1ccccc1; Cbz = O=C(OCc1ccccc1)*
How the values were obtained:
[1] = test system: Human breast cancer MDA-MB231 cells; assay type: in vivo, nude mice; conditions: for tumor inhibition rate (%): mouse, in vivo
Protocol: 1) Human breast cancer MDA-MB231 cells were purchased from American type culture collection (ATCC) and identified according the specification provided by ATCC. Cells were cultivated in […] (DMEM culture medium) containing 10% fetal bovine serum at 37° C. and 5% CO2. The cells were passaged for every three days and cells within the 15th passage were used.
2) Production of tumor. 5×10^6 MDA-MB231 cells were subcutaneously injected to the back of the nude mice. Mice were randomly grouped after the tumor reached at least 100 mm^3. Then treatment began and the day on which the treatment began was day 1.
3) Course of treatment. […] The drugs were administered once weekly for four weeks.
When R1 is 2-(2-Methoxyethoxy)Acetyl, and R3 is Ala, activation study and efficacy study were carried out by using compounds having different cleavable linker. The study methods are identical to those in Examples 10, 11 and 12. The in vitro activation efficiency was tested by asparagine endopeptidase and the tumor inhibition rate was tested by using human breast cancer MDA-MB231 model. […]

HEK293 cells = assay type: cell-based
Protocol: Toxicity detection method: a standard universal test program was used to perform the in vitro cytotoxicity test. 2500 HEK293 cells were cultured in a 96-well plate, and allowed to grow overnight. Cytotoxic compounds and their corresponding conjugated compounds were added into each well in different concentrations, cultivated with the cells at 37° C. for 72 hours, and then treated with MTT reagents. OD changes were read. The approximate multiples of the toxicity change were obtained by comparing the IC50 of the modified compounds to their corresponding cytotoxic compounds.

asparagine endopeptidase = biological target: T1, asparagine endopeptidase (Homo sapiens, UniProt Q99538)
T1 sequence (Q99538 26-323 limits assumed): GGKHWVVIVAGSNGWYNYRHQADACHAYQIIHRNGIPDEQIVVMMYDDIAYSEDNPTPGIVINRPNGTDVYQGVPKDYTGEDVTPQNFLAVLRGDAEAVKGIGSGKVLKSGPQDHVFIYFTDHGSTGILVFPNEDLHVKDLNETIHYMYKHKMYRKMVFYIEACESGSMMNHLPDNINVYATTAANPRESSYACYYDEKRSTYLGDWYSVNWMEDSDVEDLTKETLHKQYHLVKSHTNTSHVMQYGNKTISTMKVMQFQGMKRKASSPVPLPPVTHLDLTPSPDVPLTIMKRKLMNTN
Protocol: Reduction of reactant and increase of product were detected by HPLC, thereby comparing the activation efficiency of these compounds.
When R1 is 2-(2-Methoxyethoxy)Acetyl, and R3 is Ala, activation study and efficacy study were carried out by using compounds having different cleavable linker. The study methods are identical to those in Examples 10, 11 and 12. The in vitro activation efficiency was tested by asparagine endopeptidase and the tumor inhibition rate was tested by using human breast cancer MDA-MB231 model.

tumor CD8+ T cells = assay type: in vivo, C57 mice; conditions: D121 immunized C57 mice, 13.2 μmol/kg; ratio of CD8 positive cells in CD45 positive cells of tumor
Protocol: (§1) 4) Analysis on tumor CD8+ T cells. The tumor tissue was homogenated and individual cells in the tumor were filtered, separated and washed by buffer twice, then cultivated with the leucocyte common antigen CD45-PE and CD8-FITC marked antibodies for 1 hour at ambient temperature. The cells were washed by phosphate buffer containing 1% fetal bovine serum twice and then analyzed for the ratio of the T lymphocyte antigen (CD8) positive cells in the leucocyte common antigen (CD45) positive cells by flow cytometry.
as §1, with “CD45-PE and T-lymphocyte antigen CD8-FITC marked” for “CD45-PE and CD8-FITC marked”, “flow cytometry. Increasement of the ratio indicates increased T lymphocyte cells and thus the animal immunity against the tumor was improved.” for “flow cytometry.”
as §1, with “cytometry. Increasement of the ratio indicates increased T lymphocyte cells and thus the animal immunity against the tumor was improved.” for “cytometry.”

D121 lung tumor cells = assay type: in vivo, C57 mice
Protocol: 1) D121 lung tumor cells were purchased from ATCC. Cells were cultivated in DMEM culture solution containing 10% fetal bovine serum at 37° C. and 5% CO2. The cells were passaged for every three days and cells within the 15th passage were used.
(§2) 2) Tumor immunization. 5×10^5 D121 lung cancer cells (purchased from ATCC) which were killed by irradiation were intraperitoneally injected to mice. The mice were injected for 3 times, once every two weeks. After immunization, mice were injected with tumor cells and the drugs were administered weekly for 4 weeks.
3) Production of tumor. At day 32, 10^6 live lung tumor cells were subcutaneously injected to the back of the C57 mice immunized by tumor. Treatment began when the tumor grew to 0.3-0.4 cm.
as §2, with “4 weeks. In table 16 below the immune group was immuned with D121 lung tumor cells and the group without dead D121 lung tumor cells was injected with physiological saline as controls.” for “4 weeks.”
3) Production of tumor. After immunization (4 weeks later), 10^6 live lung tumor cells were subcutaneously injected to the back of the C57 mice immunized by tumor. Treatment began when the tumor grew to 0.3-0.4 cm. Tumor size (mm^3) were noted and tumor inhibition rates were calculated.
as §2, with “4 weeks. In the table below the immune group was immuned with D121 lung tumor cells and the group without dead D121 lung tumor cells was injected with physiological saline as controls.” for “4 weeks.”
3) Production of tumor. At day 32, 10^6 live D121 lung tumor cells were subcutaneously injected to the back of the C57 mice immunized by tumor. Treatment began when the tumor grew to 0.3-0.4 cm.
1) D121 lung tumor cells were purposed from ATCC. Cells were cultivated in DMEM culture solution containing 10% fetal bovine serum at 37° C. and 5% CO2. The cells were passaged for every three days and cells within the 15th passage were used.

[2] = test system: Human breast cancer MDA-MB435 tumor tissue homogenate; assay type: biochemical; conditions: Human breast cancer MDA-MB435 tumor tissue homogenate (30 μg/ml); 1 mg/ml compound
Protocol: (§3) At 37 °C, sample compounds were added into 100 μg acidized tumor tissue homogenates (pH6.0) in a concentration of 1 mg/ml.
(§4) At 37 °C, sample compounds were added into 100 μg acidized human breast cancer (MDA-MB435) tumor tissue homogenates (pH6.0) in a concentration of 1 mg/ml.
(§5) […], sample compounds were added into 100 μg acidized tumor tissue homogenates (pH6.0) in a concentration of 1 mg/ml.
as §4
(§6) At 37 °C, sample compounds were added into 100 μg acidized tumor tissue homogenates in a concentration of 1 mg/ml.
(§7) In the experiments, at 37 °C, compounds were added into proteases in 100 μg acidized tumor tissue homogenates in a concentration of 1 mg/ml. […] Meanwhile certain compounds produced in the screening were compared and their activation efficiency in same tissue was analyzed.
(§8) At 37° C., compounds were added into proteases in 100 μg acidized tumor tissue homogenates in a concentration of 1 mg/ml.

[3] = test system: Human colon cancer HT-29 tumor tissue homogenate; assay type: biochemical; conditions: Human colon cancer HT-29 tumor tissue homogenate (30 μg/ml); 1 mg/ml compound
Protocol: as §3, §5, §6, §7, §8

[4] = test system: Human liver cancer Hepg2 tumor tissue homogenate; assay type: biochemical; conditions: Human liver cancer Hepg2 tumor tissue homogenate (30 μg/ml); 1 mg/ml compound
Protocol: as §3, §5, §6, §7, §8

[5] = test system: Human renal cancer OS-RC-2 tumor tissue homogenate; assay type: biochemical; conditions: Human renal cancer OS-RC-2 tumor tissue homogenate (30 μg/ml); 1 mg/ml compound
Protocol: as §3, §5, §6, §7, §8

[6] = test system: Human non-small cell lung cancer A549 tumor tissue homogenate; assay type: biochemical; conditions: Human non-small cell lung cancer A549 tumor tissue homogenate (30 μg/ml); 1 mg/ml compound
Protocol: as §3, §5, §6, §7, §8

[7] = test system: Human chronic leukemia K562 tumor tissue homogenate; assay type: biochemical; conditions: Human chronic leukemia K562 tumor tissue homogenate (30 μg/ml); 1 mg/ml compound
Protocol: as §3, §5, §6, §7, §8

[8] = test system: Human pancreatic cancer Panc-1 tumor tissue homogenate; assay type: biochemical; conditions: Human pancreatic cancer Panc-1 tumor tissue homogenate (30 μg/ml); 1 mg/ml compound
Protocol: as §3, §5, §6, §7, §8

Human heart = assay type: biochemical; conditions: Human heart homogenate; 1 mg/ml compound

For `CC[C@H](C)[C@@H]([C@@H](CC(=O)N1CCC[C@H]1[C@H](OC)[C@@H](C)C(=O)N[C@H](C)[C@@H](O)c1ccccc1)OC)N(C)C(=O)[C@@H](NC(=O)[C@H](C(C)C)N(C)C(=O)OCc1ccc(NC(=O)[C@H](CC(N)=O)NC(=O)[C@H](C)NC(=O)[C@H](C)NC(C)=O)cc1)C(C)C` [AC-AAN-PABC-MMAE] (Ac-AAN[PABC][NMeV]V[Dil][Dolaproine]-X3), the “tumor inhibition rate (%)” value [1] was 16.7%, the “Cytoxicity reduced (Multiples)” value (HEK293 cells) was 15.5 Multiples and the Cleaving efficiency (asparagine endopeptidase) was 3.4%.

`CC[C@H](C)[C@@H]([C@@H](CC(=O)N1CCC[C@H]1[C@H](OC)[C@@H](C)C(=O)N[C@H](C)[C@@H](O)c1ccccc1)OC)N(C)C(=O)[C@@H](NC(=O)[C@H](C(C)C)N(C)C(=O)OCc1ccc(NC(=O)[C@H](CC(N)=O)NC(=O)[C@H](C)NC(=O)[C@H](C)NC(=O)OCc2ccccc2)cc1)C(C)C` [CBZ-AAN-PABC-MMAE] (Cbz-AAN[PABC][NMeV]V[Dil][Dolaproine]-X3) was tested, and the “tumor inhibition rate (%)” value [1] was 9.7%, the “Cytoxicity reduced (Multiples)” value (HEK293 cells) was 8.3 Multiples and the Cleaving efficiency (asparagine endopeptidase) was 2.6%.

For `COCCOCC(=O)N[C@H](C(=O)N[C@@H](C)C(=O)N[C@@H](CC(N)=O)C(=O)Nc1ccc(COC(=O)N[C@H]2C[C@H](O[C@H]3C[C@](O)(C(C)=O)Cc4c(O)c5c(c(O)c43)C(=O)c3c(OC)cccc3C5=O)O[C@@H](C)[C@H]2O)cc1)C(C)O` (stereo partly drawn) [Compound S4, 4-N—(N—(N—(N-2-(2-methoxyethoxy)acetyl-L-threonyl)-L-alanyl)-L-asparaginyl)-amino benzyl alcohol-daunorubicin-carbamate], the “CD8: CD45 (%)” value (tumor CD8+ T cells) was 16.8%, the “Size of tumor (mm^3) Day 18” value (D121 lung tumor cells; D121 immunized C57 mice, 13.2 μmol/kg weekly, PDL1 antibody 5 μg/kg where combined, Day 18) was 316.78 ± 109.98 mm^3 and the “Treatment effects on C57 mice, in words” value (D121 lung tumor cells; compared to the control group and the other treatment groups) was “greatly improved”. For the same compound, the “Size of tumor (mm^3) Day 10” value ([1]; MDA-MB231, nude mice, IV 13.2 μmol/kg once weekly for four weeks, Day 10) was 95.56 ± 57.54 mm^3, the “Size of tumor (mm^3) Day 24” value ([1]; MDA-MB231, nude mice, IV 13.2 μmol/kg once weekly for four weeks, Day 24) was 64.68 ± 43.56 mm^3 and the “Effect on tumor growth, in words” value ([1]; compared to control, camptothecin, capecitabine and daunorubicin groups) was “strong inhibitory effect on tumor growth”. The “Activation Efficiencies (%)” value [2] was 83.5%, the “Activation Efficiencies (%)” value [3] was 83.5% and the “Activation Efficiencies (%)” value [4] was 67.3%. For the same compound, the “Activation Efficiencies (%)” value [5] was 78.5%, the “Activation Efficiencies (%)” value [6] was 64.5% and the “Activation Efficiencies (%)” value [7] was 64.5%. The “Activation Efficiencies (%)” value [8] was 67.3%, the “Cytoxicity reduced (Multiple)” value (HEK293 cells; HEK293, 72 hours, MTT, IC50 of modified compound compared to its corresponding cytotoxic compound, approximate multiples) was 345 Multiple and the “Activation Efficiencies (%)” value (Human heart) was 2.8%.

With `CCC(C)C(C(CC(=O)N1CCCC1C(OC)C(C)C(=O)NC(C)C(O)c1ccccc1)OC)N(C)C(=O)C(NC(=O)C(C(C)C)N(C)C(=O)OCc1ccc(NC(=O)C(CC(N)=O)NC(=O)C(C)NC(=O)C(C)NC(=O)COCCOC)cc1)C(C)C` (stereo not drawn) [PEG-AAN-PABC-MMAE] (MeOCH2CH2OCH2CO-AAN[PABC][NMeV]V[X1][Dolaproine(all-ξ)]-X2; configuration not given here) the “tumor inhibition rate (%)” value [1] was 34.4%, the “Cytoxicity reduced (Multiples)” value (HEK293 cells) was 22 Multiples and the Cleaving efficiency (asparagine endopeptidase) was 14.4%.

In the case of `COCCOCC(=O)N[C@@H](C)C(=O)N[C@@H](C)C(=O)N[C@@H](CC(N)=O)C(=O)N[C@@H](CC(C)C)C(=O)N[C@H]1C[C@H](O[C@H]2C[C@](O)(C(=O)CO)Cc3c(O)c4c(c(O)c32)C(=O)c2c(OC)cccc2C4=O)O[C@@H](C)[C@H]1O` [PEG-AANL-DOX] (MeOCH2CH2OCH2CO-AANL-{Doxorubicin(3'-N)}), the “tumor inhibition rate (%)” value [1] is reported as 60.3%, the “Cytoxicity reduced (Multiples)” value (HEK293 cells) is reported as 110.2 Multiples and the Cleaving efficiency (asparagine endopeptidase) is reported as 66.5%.

— patent US10682371B2, “Small molecule conjugates specifically activated in tumor microenvironment for targeting and use thereof” (priority 2014, dated 2020)
